Read-outs that look alike come from different tables or passages of the source.
Tests used:
[1] = target: T1, TREK-1 (Homo sapiens, UniProt O95069); set-up: method as in PMID 32851651; details: read-out: functional EC50 for activation of TREK-1; cited from earlier work
T1 sequence (O95069 1-426): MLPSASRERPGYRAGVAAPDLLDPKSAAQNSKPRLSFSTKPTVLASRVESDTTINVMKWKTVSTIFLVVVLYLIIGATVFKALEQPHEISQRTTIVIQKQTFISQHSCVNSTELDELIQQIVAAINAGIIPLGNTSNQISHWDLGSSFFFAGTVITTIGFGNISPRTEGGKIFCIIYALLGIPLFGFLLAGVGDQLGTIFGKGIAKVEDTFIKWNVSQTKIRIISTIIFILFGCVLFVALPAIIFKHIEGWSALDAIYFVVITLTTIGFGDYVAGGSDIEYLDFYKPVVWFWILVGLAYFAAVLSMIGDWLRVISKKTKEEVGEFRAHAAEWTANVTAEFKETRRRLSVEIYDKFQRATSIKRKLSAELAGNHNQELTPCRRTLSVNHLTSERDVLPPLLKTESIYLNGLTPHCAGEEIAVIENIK

[2] = test system: rodents; set-up: method as in PMID 32851651; details: cited from earlier work
[3] = rat predicted hepatic clearance (hepatic microsomes); format: in vitro ADME
Method: Intrinsic clearance: Human or rat hepatic microsomes (0.5 mg/mL) and 1 µM test compound were incubated in 100 mM potassium phosphate pH 7.4 buffer with 3 mM MgCl2 at 37 °C with constant shaking. After a 5 min preincubation, the reaction was initiated by the addition of NADPH (1 mM). At selected time intervals (0, 3, 7, 15, 25, and 45 min), aliquots were taken and subsequently placed into a 96-well plate containing cold acetonitrile with internal standard (50 ng/mL carbamazepine). Plates were then centrifuged at 3000 rcf (4 °C) for 10 min, and the supernatant was transferred to a separate 96-well plate and diluted 1:1 with water for LC/MS/MS analysis. The in vitro half-life ( 1/2, min, Eq. 1), intrinsic clearance (CLint, mL/min/kg, Eq. 2), and subsequent predicted hepatic clearance (CLhep, mL/min/kg, Eq. 3) was determined employing the […]
where k represents the slope from linear regression analysis of the natural log percent remaining of a test compound as a function of incubation time […]
(2) CLint = in vitroT1/2 x mg microsomes x gram liver x kg body wt ascale-up factors: of 20 (human) or 45 (rat) […]
where Qh (hepatic blood flow, mL/min/kg) is 21 (human) or 70 (rat).
LC/MS/MS Bioanalysis of Samples from Plasma Protein Binding and Intrinsic Clearance […]
Samples were analyzed on a Thermo Electron TSQ Quantum Ultra triple quad mass spectrometer (San Jose, CA) via electrospray ionization (ESI) with two Themo Electron Accella pumps (San Jose, CA), and a Leap Technologies CTC PAL autosampler (Carrboro, NC). Analytes were separated by gradient elution on a dual column system with two Thermo Hypersil Gold (2.1 x 30 mm, 1.9 µm) columns (San Jose, CA) thermostated at 40 °C. HPLC mobile phase A was 0.1% formic acid in water and mobile phase B was 0.1% formic acid in acetonitrile. The gradient started […]
for 0.2 min; returned to 10% B in 0.1 min. The total run time was 1.3 min and the HPLC flow rate was 0.8 mL/min. While pump 1 ran the gradient method, pump 2 equilibrated the alternate column isocratically at 10% B. Compound optimization, data collection, and processing was performed using Thermo Electron's QuickQuan software (v2.3) and Xcalibur (v2.0.7 SP1).

[4] = target: T2, TREK-2 (Homo sapiens, UniProt P57789); experiment: TREK-2 activation, BL-1249 series (assay not given); format: cell-based; details: assay format not stated
T2 sequence (P57789 1-538): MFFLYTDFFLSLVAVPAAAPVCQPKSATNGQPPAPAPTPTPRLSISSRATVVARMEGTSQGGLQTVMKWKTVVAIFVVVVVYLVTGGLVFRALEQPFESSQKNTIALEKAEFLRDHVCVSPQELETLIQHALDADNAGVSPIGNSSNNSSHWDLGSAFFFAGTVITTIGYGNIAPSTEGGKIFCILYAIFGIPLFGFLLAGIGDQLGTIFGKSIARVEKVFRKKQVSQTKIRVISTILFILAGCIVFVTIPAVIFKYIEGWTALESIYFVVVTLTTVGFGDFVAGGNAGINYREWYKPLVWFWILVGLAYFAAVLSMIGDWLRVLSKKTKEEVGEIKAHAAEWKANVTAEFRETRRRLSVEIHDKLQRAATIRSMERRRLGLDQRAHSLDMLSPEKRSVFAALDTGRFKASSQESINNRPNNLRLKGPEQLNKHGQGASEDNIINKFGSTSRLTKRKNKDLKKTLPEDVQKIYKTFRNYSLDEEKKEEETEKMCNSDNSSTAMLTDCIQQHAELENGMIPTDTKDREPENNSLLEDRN

[5] = target: T1, TREK-1; experiment: TREK-1 activation, BL-1249 series (assay not given); format: cell-based; details: assay format not stated
[6] = rat plasma protein binding (equilibrium dialysis); format: in vitro ADME; details: pH 7.4, read-out: rat plasma fu
Method: In vitro Plasma protein binding and Brain homogenate binding: Determination of fraction unbound (f u) in plasma was conducted in vitro via equilibrium dialysis using HTDialysis (HTD) membrane plates. The top half of the plate was filled with 100 uL of Dubelco’s Phosphate Buffered Saline, pH 7.4 (DPBS). Compounds were diluted into plasma from each species (5 µM final concentration), which was aliquoted in triplicate to the ‘bottom half’ of the prepared HTD plate wells. The HTD plate was sealed and incubated for 6 hours at 37 °C. Following incubation, each well (both top and bottom halves) were transferred (20 µL) to the corresponding wells of a 96-shallow-well (V-bottom) plate. The daughter plates were then matrix-matched (DPBS side wells received equal volume of plasma, and plasma side wells received equal volume of DPBS), and extraction solution (120 µL; acetonitrile containing 50 nM carbamazepine as IS) was added to all wells of both daughter plates to precipitate protein and extract test article. The plates were then sealed and centrifuged (3500 rcf) for 10 minutes at ambient temperature. Supernatant (60 µL) from each well of the daughter plates was then transferred to the corresponding wells of new daughter plates (96-shallow-well, V bottom) containing water (Milli-Q, 60 µL/well), and the plates were sealed in preparation for LC-MS/MS analysis (see LC-MS/MS analysis method below).
The unbound fraction (f u) was calculated following the equation below, and mean values for each species were calculated from 3 replicates. […]
Fraction unbound for both plasma and brain samples was determined using Equation 4.
Equation 4 Determination of fraction unbound in plasma. […]

rat CLhep (predicted hepatic clearance) [3]	EC50 [4]	Emax [4]	EC50 [5]	Emax [5]	fraction unbound at 6 h, 5 µM [6]	SMILES	EC50 [1]	morphine-like adverse events at efficacious doses [2]	antinociceptive activity ([2]; naïve rodents and models of neuropathic and inflammatory pain)
						N#C/C(=C\c1ccoc1)C(=O)O [Compound 3]	37 µM	did not induce respiratory depression, rewarding effects, depression, constipation or other morphine-inducing adverse events	antinociceptive activity
26.8 mL/min/kg	12.9 µM	129%	3.6 µM	67%	0.042	O=c1[nH]c(-c2ccc(F)cc2Nc2cccc(C(F)(F)F)c2)no1 [Compound 11]			

Source: article PMC11887051, “Discovery of ONO-2920632 (VU6011887): A Highly Selective and CNS Penetrant TREK-2 (TWIK-Related K+ Channel 2) Preferring Activator In Vivo Tool Compound” (ACS Chemical Neuroscience, 2025)
